Measurements reported in patent publication US20200260697A1, “METHODS OF MOUSE CLINICAL TRIAL” (CROWN BIOSCIENCE, INC. (TAICANG), priority 2016, published 2020).

Columns and labels:
Format in all cases: in vivo, mouse
[1] = tested on: 42 PDXs including 13 esophageal cancers (ES), 21 gastric cancers (GA) and 8 lung cancers(LU); experiment: Survival analysis (PFS, OS) of the cisplatin MCT dataset, additive frailty model and proportional hazard Cox model; details: cisplatin versus vehicle
Description: Survival analysis are the most important endpoints of human clinical trials and can also be potentially adapted to MCT by first defining “clinical endpoint” of PFS (progress-free survival) and OS (overall survival) in preclinical setting. By the RECIST standard (Therasse P et al., J Natl Cancer Inst (2000) 92(3):205-16), we define PFS as the time until the starting tumor volume increases by 73%, and define OS as the time until the starting tumor volume triples, at which the tumor volume is usually between 300-600 mm^3, depending on initial tumor volumes. As we have shown in examples above, tumors already start exponential growth before it reaches 600 mm^3. The definitions are more of a custom and can certainly be adjusted otherwise. For example, Gao et al defined PFS as the time until tumor volume doubles (Gao H et al., Nat Med (2015) 21(11):1318-25). We can also define OS as the time until the starting tumor volume quadruples and so on.
In human oncology trails, survival time of patients is usually assumed to be independent of each other. […] Mice have correlated survival time both within a PDX and between treatments (FIGS. 10A-B). There is heterogeneity on hazard and drug response for PDXs. We used an additive frailty model to fit the survival data in MCTs (Rondeau V et al., J Statistical Software (2012) 47(4):1-28; Hanagal D D, Statistical Methods in Medical Research (2015) 24(6):936-36). In this model, the hazard function for the j-th mouse of the i-th PDX is
hij(t)=h0(t)exp(ui+(w+vi)Tij+β^TXi)
where h0(t) is the baseline hazard function. Parameter ui is the random effect (the first frailty term) associated with the i-th PDX that captures its characteristic growth, thus survival behavior, without drug treatment. Parameter vi is the random effect (the second frailty term) associated the i-th PDX that depicts its drug response deviating from the mean drug effect w of all PDXs. Tij is the treatment variable and it equals 0 for the vehicle treatment and 1 for the drug treatment; Xi is a vector for the PDX's covariates, e.g., cancer type and gene expression; β^T is the parameter vector quantifying the fixed effects of the covariates. The two random effects ui and vi assume a bivariate normal distribution with zero means, variance σ^2 and τ^2, and covariance ρστ. If the two random effects ui and vi are removed, the model reduces to the proportional hazard Cox model.
We used the cisplatin dataset in the previous example to illustrate modeling by the additive frailty model, using the R package frailtypack (Rondeau V et al., J Statistical Software (2012) 47(4):1-28). For simplicity, we used treatment as the sole covariate. By Equation 10, we observed that both frailty terms are significant larger than 0 (Wald test p-value<0.05) for PFS and OS analyses. […]

[2] = tested on: 42 PDXs including 13 esophageal cancers (ES), 21 gastric cancers (GA) and 8 lung cancers(LU); experiment: MCT evaluating cisplatin response on 42 PDXs, tumor volume analysed by linear mixed model (Equation 7) and AUC ratio
Protocol: In a MCT, tumor volume is measured at multiple time points for each mouse, and these tumor volumes are often correlated, as in a typical longitudinal study. As shown above, almost all growth curves under vehicle treatment can be modeled by the linear Equation 2, and under drug treatment, about 80% of the growth curves are linear or close to linear. If we introduce a quadratic term on the day (x^2), more than 90% of the growth curves can be fitted with R^2>0.7, and 97% with R^2>0.4. With such strong linearity, the linear mixed models (LMM) is a proper and powerful tool to analyze the clustered longitudinal data from MCTs (West B T et al., “Linear Mixed Models: A Practical Guide Using Statistical Software, Second Edition”, Crc Press (2014)). Specifically, a 3-level model is appropriate, in which PDX and mouse are random factors, and covariates at the PDX-level and mouse-level can be included (FIG. 9A). We used an MCT to illustrate the application of LMMs for drug response evaluation and biomarker discovery. The MCT evaluated cisplatin response (4 mg/kg, daily dosing for 3 weeks) on 42 PDXs including 13 esophageal cancers (ES), 21 gastric cancers (GA) and 8 lung cancers(LU), each PDX had 5-9 mice (FIGS. 9B-C). A general model was specified for tumor volume, in log scale, at day t for mouse i within PDX j as follows: [formula] The model used vehicle in ES as the reference. There were […], β0 for the intercept, β1 for the time slope, β2 and β3 quantify the growth rate difference of GA and LU with respect to ES, β4 measures cisplatin effect, β5 and β6 check if GA and LU respond differently to cisplatin. The model also had 5 random effects, including the residual ϵtij. In a MCT, we can view the cohort of PDXs as random samples from a PDX or patient population, therefore, they have different growth rates, which is modeled by the random effect u1j associated with the time slope. Similarly, we model the growth difference for mice within a PDX by the random effect u1i|j. Mice and PDX may also have different starting tumor volumes, which are modeled by the two random effects on intercept: u0j and u0i|j. Therefore, our LMM captures both PDX-level and mouse-level growth heterogeneity under vehicle and drug treatments. […] From the model, we can get fitted cancer specific growth curves, as well as PDX and mouse specific growth curves. On average, cisplatin reduces tumor growth rate by about 38%.

gastric cancer PDXs = experiment: LMM (Equation 8) of the cisplatin dataset with ERCC1 expression as covariate; details: LMM Equation 8, gastric cancer PDXs
Description: The LMM can readily incorporate PDX-level genomic covariates, e.g. gene expression and mutation, for biomarker analysis. We used the same dataset to examine if ERCC1 expression is related to cisplatin response in gastric cancer by fitting the following LMM:
lnVtij=β0+β1×Dayt+β2×Dayt×ERCC1j+β3×Dayt×Treatmentij+β4×Dayt×ERCC1j×Treatmentij+u0j+u1j×Dayt+u(0i|j)+u(1i|j)×Dayt+ϵtij (8)
In this model, β2 evaluates ERCC1 expression as a prognostic biomarker since it is for both vehicle and cisplatin groups. […] The coefficient β4 examines ERCC1 expression as a predictive biomarker for cisplatin. The fitted value of β4 is 0.0136, close to that of β2. Therefore, high ERCC1 expression acts adversely to cisplatin treatment (FIG. 9E). The parameter β3 quantifies cisplatin treatment and is estimated to be −0.0879. Results from our LMM may have clinical implications.

## N.N.[Cl][Pt][Cl] [cisplatin]
[1]; additive frailty model, OS = time until starting tumor volume triples
  hazard ratio (HR) for OS: 0.21 (95% CI: 0.15-0.31)
[1]; additive frailty model, PFS = time until starting tumor volume increases by 73%
  hazard ratio (HR) for PFS: 0.40 (95% CI: 0.31-0.50)
[1]; proportional hazard Cox model
  OS HR: 0.36 (95% CI: 0.28-0.46)
  PFS HR: 0.48 (95% CI: 0.40-0.58)
[2]; ES, GA and LU PDXs, p-values for β5 and β6 >0.05
  response across cancer types: comparable responses on the 3 cancer types
[2]; LMM Equation 7, vehicle in ES as reference, REML estimate, second figure not defined, p-value 1.2E−19
  β4 (Day × Treatment) estimate, cisplatin effect on growth rate of ln tumor volume: −0.0282(0.0031)
[2]; LMM Equation 7, checks if GA responds differently to cisplatin than ES, REML estimate, second figure not defined, p-value 0.35
  β5 (Day × CancerTypeGA × Treatment) estimate: 0.0037(0.0039)
[2]; LMM Equation 7, checks if LU responds differently to cisplatin than ES, REML estimate, second figure not defined, p-value 0.84
  β6 (Day × CancerTypeLU × Treatment) estimate: −0.0011(0.0052)
[2]; cisplatin 4 mg/kg, daily dosing for 3 weeks, 42 PDXs, 5-9 mice each, LMM Equation 7
  reduction of tumor growth rate, on average (LMM): about 38%
[2]; cisplatin 4 mg/kg, daily dosing for 3 weeks, 42 PDXs, AUC ratio method
  reduction of tumor growth rate by the AUC ratio method: 36%
Gastric cancer PDXs; ERCC1 expression as covariate
  β3 (Day × Treatment), quantifies cisplatin treatment: −0.0879
Gastric cancer PDXs; positive value: high ERCC1 expression acts adversely to cisplatin treatment
  β4 (Day × ERCC1 × Treatment), ERCC1 expression as predictive biomarker for cisplatin: 0.0136
